Biological target: T1, horseradish peroxidase (HRP) (Armoracia rusticana, UniProt P00433)
T1 construct: gene PRXC1A; free enzyme for this row
T1 sequence (P00433 31-338): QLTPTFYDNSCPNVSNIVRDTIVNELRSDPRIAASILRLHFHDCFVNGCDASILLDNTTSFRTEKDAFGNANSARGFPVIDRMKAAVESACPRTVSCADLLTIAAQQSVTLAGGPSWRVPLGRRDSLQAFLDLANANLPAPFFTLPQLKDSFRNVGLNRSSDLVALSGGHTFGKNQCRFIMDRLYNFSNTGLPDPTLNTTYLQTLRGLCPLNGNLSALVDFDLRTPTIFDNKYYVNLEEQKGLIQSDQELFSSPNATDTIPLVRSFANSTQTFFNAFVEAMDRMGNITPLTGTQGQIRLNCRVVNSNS
Assay: TMB oxidation, absorbance at […] nm after acid stop
Assay type: biochemical
Conditions: free HRP; co-substrate H2O2; oxidation also seen with ZIF-8-encapsulated HRP

SMILES: Cc1cc(-c2cc(C)c(N)c(C)c2)cc(C)c1N [TMB, 3,3′,5,5′-Tetramethylbenzidine]
- TMB oxidation, absorbance at 450 nm after acid stop: HRP, HRP@ZIF-8, HRP&Au@ZIF-8 and HRP&Au@ZIF-8/cDNA were all able to catalyze TMB oxidation
